Measured values published in the NIST ThermoML archive (doi:10.1016/j.jct.2012.01.018).
± gives the expanded uncertainty stated by the source.

Legend:
[1] = Crystal; visual observation
[2] = molar enthalpy of vaporization or sublimation; details: 298.15 K; Crystal; drop calorimetry

O=[N+]([O-])c1cccc2nsnc12 [4-nitro-2,1,3-benzothiadiazole]
Normal melting temperature [1]: 110 ± 1 °C
molar enthalpy [2]: 24.3 ± 2.06 kcal/mol
